Measured values reported in patent US20250228881A1, “COMPOSITION FOR PREVENTION OR TREATMENT OF MULTIPLE MYELOMA COMPRISING NOVEL T[…] AS ACTIVE INGREDIENT” (KBLUEBIO INC, priority 2021, published 2025).
Entries after “also recorded” stand apart in the source; their conditions may differ.

Assays:
[1] = test system: multiple myeloma cell lines; test: Co-treatment of multiple myeloma cell lines with KBB-N2 and lenalidomide (killing effect); format: cell-based, Human; settings: co-treated with lenalidomide, compared with lenalidomide alone
Protocol: Multiple myeloma cells IM-9 and RPMI 8226 (3×10^6 cells/mL) treated with KBB-N2 for 48 hours were washed with 1x PBS (phosphate-buffered saline, pH 7.4) and fixed with 70% ethanol. After washing several times with 1×PBS, 5 μL of Annexin V-FITC and 5 μL of PI (propidium iodine) (Sigma-Aldrich, St. Louis, MO) were added to 500 μL of 1×PBS containing the cells (1×10^6 cells/mL) suspended therein, followed by staining in a dark room at room temperature for 30 minutes. Then, 500 μL of 1× binding buffer was added thereto, and flow cytometry was performed using FACSCalibur (Becton Dickinson, Franklin Lakes, NJ, USA), followed by analysis using the CellQuest software (Becton Dickinson) program.

RPMI 8226 cells = test: Quantitative RT-PCR array of 84 apoptosis-related genes after KBB-N2 treatment; format: cell-based, Human; settings: 50 μM KBB-N2, 48 hours
Protocol: To investigate the cell death mechanism induced by treatment with KBB-N2, changes in the expression of apoptosis-related genes in a multiple myeloma cell line were measured. 50 μM of KBB-N2 was added to multiple myeloma cells (million cells/mL), followed by 48 hours of culture. Then, total RNA was extracted and the expression levels of 84 apoptosis-related genes were analyzed using quantitative RT-PCR array (Cat #PAHS-012Z; Qiagen Seoul, Seoul, Korea). After treating the cells with 50 μM of KBB-N2, the cells were cultured for 48 hours, and total RNA was isolated from the RPMI 8226 cells using the RNAqueous total RNA isolation kit (Thermo Fisher Scientific). Contaminating genomic DNA in the extracted RNA was removed using an RNase-Free DNase set (Qiagen). Total RNA (5 ug) was reverse transcribed into cDNA in a reaction volume of 10 μL using the RT2 First Strand Kit (Qiagen). Next, 10 μL of cDNA was combined with each primer set of the human apoptosis-related RT2 Profiler PCR Array (Qiagen) according to the manufacturer's protocol. Amplification reactions were performed using the real-time polymerase chain reaction system CFX96 (Bio-Rad, Hercules, CA, USA) with automated baseline and threshold cycle detection. The relative expression of […] genes was normalized to five built-in housekeeping genes. Each group was analyzed by the web-based software GeneGlobe Data Analysis Center (Qiagen).

[2] = test system: normal hematopoietic stem cells; test: Progenitor colony formation of normal PBSC fraction on methylcellulose (toxicity to hematopoietic stem cells); format: cell-based; settings: normal donor PBSC, 2 weeks, KBB-N2 up to 60 μM
Protocol: G-CSF was subcutaneously injected into a normal donor to mobilize hematopoietic stem cells, and a peripheral blood stem cell (PBSC) fraction was extracted from the donor's peripheral blood by leukapheresis. The obtained normal PBSC fraction and KBB-N2 were cultured on methylcellulose for 2 weeks, and the cytotoxicity of KBB-N2 to hematopoietic stem cells was evaluated by counting the number of the formed erythroid progenitor colonies and leukocyte/megakaryocytic progenitor colonies.

[3] = test system: human-derived multiple myeloma cell lines ARH77, U266, and RPMI 8226; test: Multiple myeloma mouse xenograft model, tail vein administration; format: in vivo; settings: xenograft mice
Protocol: Using xenograft models obtained by injecting the same human-derived multiple myeloma cell lines ARH77, U266, and RPMI 8226 into mice, each of KBB-N2 was injected into the vein tail at 7 mg/Kg/day, and as a positive control, lenalidomide, which is currently widely used as a therapeutic agent for multiple myeloma in clinical practice, was injected into the vein tail at 1 mg/Kg/day.

CC(C)=CCC[C@](C)(O)[C@H]1CC[C@]2(C)[C@@H]1[C@H](O)C[C@@H]1[C@@]3(C)CC[C@H](O[C@@H]4O[C@H](CO)[C@@H](O)[C@H](O)[C@H]4O)C(C)(C)[C@@H]3CC[C@]12C [KBB-N2]
killing effect on co-treatment with lenalidomide [1]: killing effect was higher | overexpression of apoptosis-related gene APAF1 (RPMI 8226 cells): at least 2 fold | overexpression of apoptosis-related gene BAD (RPMI 8226 cells): at least 2 fold | overexpression of apoptosis-related gene BCL2 (RPMI 8226 cells): at least 3 fold | overexpression of apoptosis-related gene BCL2L1 (RPMI 8226 cells): at least 2 fold | overexpression of apoptosis-related gene CAS7 (RPMI 8226 cells): at least 3 fold | overexpression of apoptosis-related gene CASP2 (RPMI 8226 cells): at least 2 fold | overexpression of apoptosis-related gene CASP3 (RPMI 8226 cells): at least 2 fold | overexpression of apoptosis-related gene DAPK1 (RPMI 8226 cells): at least 4 fold | overexpression of apoptosis-related gene FADD (RPMI 8226 cells): at least 2 fold | overexpression of apoptosis-related gene HRK (RPMI 8226 cells): at least 2 fold | overexpression of apoptosis-related gene IGFIR (RPMI 8226 cells): at least 2 fold | overexpression of apoptosis-related gene LTBR (RPMI 8226 cells): at least 2 fold | overexpression of apoptosis-related gene NAIP (RPMI 8226 cells): at least 2 fold | overexpression of apoptosis-related gene NOD1 (RPMI 8226 cells): at least 2 fold | overexpression of apoptosis-related gene NOL3 (RPMI 8226 cells): at least 2 fold | overexpression of apoptosis-related gene TNF (RPMI 8226 cells): at least 2 fold | overexpression of apoptosis-related gene TNFRF1A (RPMI 8226 cells): at least 2 fold | overexpression of apoptosis-related gene TNFRSF1B (RPMI 8226 cells): at least 2 fold | overexpression of apoptosis-related gene TNFRSF10A (RPMI 8226 cells): at least 2 fold | overexpression of apoptosis-related gene TNFRSF10B (RPMI 8226 cells): at least 2 fold | overexpression of apoptosis-related gene TNFRSF25 (RPMI 8226 cells): at least 2 fold | overexpression of apoptosis-related gene TP53 (RPMI 8226 cells): at least 2 fold | overexpression of apoptosis-related gene TRADD (RPMI 8226 cells): at least 2 fold | overexpression of apoptosis-related gene XIAP (RPMI 8226 cells): at least 2 fold | cytotoxicity to hematopoietic stem cells: number and morphology/formation of progenitor cell colonies [2]: not toxic to normal hematopoietic stem cells; also recorded: not significantly inhibited | therapeutic effect for multiple myeloma ([3]; KBB-N2 7 mg/Kg/day tail vein vs positive control lenalidomide 1 mg/Kg/day tail vein): therapeutic effect equal to or higher than that of traditional lenalidomide | effect on multiple myeloma treatment in bone marrow biopsy after treatment ([3]; bone marrow biopsy after treatment): effect of KBB-N2 on multiple myeloma treatment was also found
